Holding throughout (type): binding
Test [1] addresses T1, TACR3 (Homo sapiens, UniProt P29371).
T1 construct: purchased Promega (in-house HiBiT-GPCR construct library, NanoBRET)
T1 sequence (P29371 1-465): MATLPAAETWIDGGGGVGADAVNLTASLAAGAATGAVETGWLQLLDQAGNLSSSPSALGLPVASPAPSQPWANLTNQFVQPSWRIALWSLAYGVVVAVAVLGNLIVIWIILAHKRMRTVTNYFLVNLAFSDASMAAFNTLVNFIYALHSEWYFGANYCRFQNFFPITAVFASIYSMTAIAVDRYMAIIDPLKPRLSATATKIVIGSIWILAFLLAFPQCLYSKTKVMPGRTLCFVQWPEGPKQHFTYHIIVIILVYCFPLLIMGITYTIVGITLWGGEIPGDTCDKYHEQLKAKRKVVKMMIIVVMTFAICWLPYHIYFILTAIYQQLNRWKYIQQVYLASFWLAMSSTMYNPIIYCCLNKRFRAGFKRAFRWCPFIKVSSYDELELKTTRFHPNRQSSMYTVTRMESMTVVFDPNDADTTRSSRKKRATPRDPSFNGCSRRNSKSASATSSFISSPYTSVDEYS
The test is described as follows: NanoBRET screen HiBiT-TACR3 in HEK293. The protocol: (§1) Each tracer candidate was screened across the entire library of HiBiT-GPCR constructs using NanoBRET as the detection modality. As depicted in Figure 4A, the specificity of interactions was evaluated through decrease in BRET due to competitive displacement of a bound tracer by excess parental compound. Each tracer was analyzed for binding to each HiBiT-GPCR fusion in the absence and in the presence of competing parental compound. Briefly, HEK293 cells were transfected with HiBiT-GPCR constructs diluted into promoterless DNA to reduce expression and maximize translocation to the cell surface. Each tracer candidate was then screened at concentrations of 1 μM and 0.1 μM across cells expressing these fusions. Cells were treated for 1.5 h with tracer either alone or in the presence of 20 μM competing parental compound (i.e., control). BRET was measured upon addition of purified LgBiT and subsequent complementation with HiBiT genetically fused to a GPCR. The specificity of interactions was assessed through a decrease in BRET signal due to competitive displacement of the bound tracer. To further gauge the robustness of these interactions, the fold response over the control (i.e., BRETtracer/BRETcontrol) was calculated. We chose a 1.5-fold response, which translates to ≥7-fold signal over noise as the minimal threshold required to score an interaction as positive. […]. Below we highlight the screening results obtained for our exemplary fluorescent tracers based on Clozapine, Amitriptyline and AZD1283.
(§2) HiBiT-GPCR DNA constructs were diluted in 10 mM Tris pH 8 to a final concentration of 0.01 μg/μL, arrayed in 96-well plates and stored at −20 °C. For transfection, HEK293 cells were suspended in Opti-MEM (without phenol red) supplemented with 2% fetal bovine serum (Seradigm) and 100 units/mL penicillin–streptomycin (Gibco) at a final concentration of 220,000 cells/mL and dispensed into white 96-well plates at 90 μL/well. Subsequent transfections and screens were carried using an Agilent Bravo Automated Liquid Handling Platform. First, the 96-well HiBiT DNA arrays were diluted 25-fold in Opti-MEM (without serum or phenol red) to a final concentration of 0.0004 μg/μL and 20 μL of the diluted DNAs were transferred into new 96-well plates. Next, promoterless carrier DNA (1 μg/μL) was diluted 25-fold (0.04 μg/μL) and then dispensed into the diluted arrays at 20 μL/well. Following brief mixing, Viafect transfection reagent (Promega) diluted 16-fold into Opti-MEM was dispensed into the plates at 40 μL/well. After mixing by pipetting, plates were incubated for 10 min on the pipetting station deck. The DNA-transfection reagent complexes were then added to plates containing cells. To facilitate the screen, 10 μL of DNA-transfection reagent complexes were added in duplicates to the top 4 and bottom 4 rows, resulting in two identical 48-well arrays per plate. Plates with transfected cells were incubated for 18–20 h at 37 °C/5% CO2. A screen of each tracer across the entire library using two different concentrations requires duplicate plates of transfected cells. Depending on the number of tracers being screened, transfections can be scaled up using the same ratios. The next day, for each tracer, four 20× screening solutions in tracer dilution buffer (Promega) were prepared: two duplicates at final concentration of 20 μM and two duplicates at a final concentration of 2 μM. A competing unmodified compound was added to one of each duplicate at a final concentration of 400 μM. The four resulting solutions were diluted 4-fold in Opti-MEM without serum or phenol red to generate 5× solutions (5 µM and 0.5 µM tracer +/− 100 μM competing compound). To screen the library, a BioTek MultiFlo FX liquid dispenser was used to dispense 22.5 µL of tracer solution to the top 4 rows and 22.5 µL tracer + competing compound solution to the 4 bottom rows. Plates were briefly mixed on an orbital shaker and incubated for 1.5 h at room temperature. […]

The target in test [2] is T2, SSTR4 (Homo sapiens, UniProt P31391).
T2 construct: purchased Promega (in-house HiBiT-GPCR construct library, NanoBRET)
The test is described as follows: NanoBRET screen HiBiT-SSTR4 in HEK293. The protocol: as §1, §2

The target in test [3] is T3, TACR2 (Homo sapiens, UniProt P21452).
T3 construct: purchased Promega (in-house HiBiT-GPCR construct library, NanoBRET)
T3 sequence (P21452 1-398): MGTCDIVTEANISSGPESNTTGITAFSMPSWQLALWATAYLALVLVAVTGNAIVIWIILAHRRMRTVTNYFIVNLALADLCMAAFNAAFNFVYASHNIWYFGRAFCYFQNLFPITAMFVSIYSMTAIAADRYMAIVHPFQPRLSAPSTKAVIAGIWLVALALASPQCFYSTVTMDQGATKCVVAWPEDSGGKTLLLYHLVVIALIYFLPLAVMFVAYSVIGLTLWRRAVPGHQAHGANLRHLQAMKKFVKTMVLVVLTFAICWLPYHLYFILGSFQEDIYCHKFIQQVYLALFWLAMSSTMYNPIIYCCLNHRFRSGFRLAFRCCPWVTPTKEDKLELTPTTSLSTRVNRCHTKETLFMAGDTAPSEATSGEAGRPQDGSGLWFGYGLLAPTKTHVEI
The test is described as follows: NanoBRET screen HiBiT-TACR2 in HEK293. Here is the method: as §1, §2

The mark [4] stands for this setting: tracer at 1μM, listed as amitriptyline-b-2-NB590.

T2 sequence (P31391 whole entry): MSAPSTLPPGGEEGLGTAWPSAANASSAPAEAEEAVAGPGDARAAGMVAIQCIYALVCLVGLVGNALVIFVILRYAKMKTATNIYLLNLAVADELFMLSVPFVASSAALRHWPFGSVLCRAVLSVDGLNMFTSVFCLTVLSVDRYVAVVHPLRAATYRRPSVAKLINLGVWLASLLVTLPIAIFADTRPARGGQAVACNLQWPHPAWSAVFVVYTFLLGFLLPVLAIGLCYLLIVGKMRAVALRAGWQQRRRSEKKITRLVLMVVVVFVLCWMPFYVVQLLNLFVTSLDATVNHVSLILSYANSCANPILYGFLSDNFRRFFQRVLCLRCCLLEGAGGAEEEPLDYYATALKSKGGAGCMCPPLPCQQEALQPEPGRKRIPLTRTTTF

Take `O=C(CCc1ccc2n1[B-](F)(F)[N+]1=C(c3ccc[nH]3)C=CC1=C2)NCCOCCOCCNC(=O)OCCOCCN1CCN(C2=Nc3ccccc3Sc3ccccc32)CC1` [Quetiapine-a-2-NB590]: the “NanoBRET Fold Response” value in test [1] (TACR3, tracer 0.1μM) was 1.04; in test [1] (TACR3, tracer 1μM) it was 0.83; in test [2] (SSTR4, tracer 0.1μM), 0.99; in test [2] (SSTR4, tracer 1μM) it was 0.83; in test [3] (TACR2, tracer 0.1μM) it was 1.22; in test [3] (TACR2, tracer 1μM), 0.72.
For `CN1CCN(C2=Nc3cc(Cl)ccc3Nc3ccc(CNC(=O)CCOCCOCCOCCOCCNC(=O)CCc4ccc5n4[B-](F)(F)[N+]4=C(c6ccc[nH]6)C=CC4=C5)cc32)CC1` [Clozapine-b-2-NB590], the “NanoBRET Fold Response” value is given as 1.01 in test [1] (TACR3, 0.1μM tracer); 1.05 in test [1] (TACR3, 1μM tracer); 0.97 in test [2] (SSTR4, 0.1μM tracer); 1.02 in test [2] (SSTR4, 1μM tracer); 0.97 in test [3] (TACR2, 0.1μM tracer).
As to `CC(C)N(CC[C@H](c1ccccc1)c1cc(CCNC(=O)CCOCCOCCOCCOCCNC(=O)CCc2ccc3n2[B-](F)(F)[N+]2=C(c4ccc[nH]4)C=CC2=C3)ccc1O)C(C)C` [Tolterodine-2-NB590], the “NanoBRET Fold Response” value is on record as 1.11 in test [1] (TACR3, tracer 0.1μM); 1.08 in test [1] (TACR3, tracer 1μM); 0.97 in test [2] (SSTR4, tracer 0.1μM); 1.14 in test [2] (SSTR4, tracer 1μM); 0.87 in test [3] (TACR2, tracer 0.1μM); 1.41 in test [3] (TACR2, tracer 1μM).
For the compound `CN(C)CCC=C1c2ccccc2CCc2ccc(C(=O)NCCNC(=O)CCOCCOCCOCCOCCNC(=O)CCc3ccc4n3[B-](F)(F)[N+]3=C(c5ccc[nH]5)C=CC3=C4)cc21` [Amitriptyline-a-2-NB590], the “NanoBRET Fold Response” value in test [1] (tracer at 1μM) is given as 1.03; in test [2] (tracer at 0.1μM), 1.09; in test [2] (tracer at 1μM) it was 1.09; in test [3] (tracer at 0.1μM), 1.10; in test [3] (tracer at 1μM) it was 1.13.
As for `Cc1cc2c(s1)Nc1ccccc1N=C2N1CCN(CCCNC(=O)CCOCCOCCOCCOCCNC(=O)CCc2ccc3n2[B-](F)(F)[N+]2=C(c4ccc[nH]4)C=CC2=C3)CC1` [Olanzapine-a-2-NB590], the “NanoBRET Fold Response” value came to 1.00 in test [1] (TACR3, tracer 0.1μM); 0.95 in test [1] (TACR3, tracer 1μM); 0.98 in test [2] (SSTR4, tracer 0.1μM); 1.04 in test [2] (SSTR4, tracer 1μM); 1.01 in test [3] (TACR2, tracer 0.1μM); 0.88 in test [3] (TACR2, tracer 1μM).
Regarding `N#CN=C(NCCCOc1cccc(CN2CCCCC2)c1)NCCNC(=O)CCOCCOCCOCCOCCNC(=O)CCc1ccc2n1[B-](F)(F)[N+]1=C(c3ccc[nH]3)C=CC1=C2` [Aminopotentidine-2-NB590], the “NanoBRET Fold Response” value in test [1] (TACR3, tracer 0.1μM) is 1.06; in test [1] (TACR3, tracer 1μM) it was 1.06; in test [2] (SSTR4, tracer 0.1μM), 1.08; in test [2] (SSTR4, tracer 1μM) it was 1.00; in test [3] (TACR2, tracer 0.1μM), 0.98; in test [3] (TACR2, tracer 1μM), 1.02.
`Cc1nc2n(c(=O)c1CCN1CCC(c3noc4cc(F)ccc34)CC1)CCCC2OC(=O)NCCOCCOCCOCCOCCNC(=O)CCc1ccc2n1[B-](F)(F)[N+]1=C(c3ccc[nH]3)C=CC1=C2` (stereo not drawn) [Risperidone-2-NB590]: the “NanoBRET Fold Response” value worked out at 1.04 in test [1] (TACR3, tracer 0.1μM); 1.10 in test [1] (TACR3, tracer 1μM); 1.03 in test [2] (SSTR4, tracer 0.1μM); 1.04 in test [2] (SSTR4, tracer 1μM); 1.18 in test [3] (TACR2, tracer 0.1μM); 1.09 in test [3] (TACR2, tracer 1μM).
Take `CN(C)CCC=C1c2ccccc2CCc2ccc(C(=O)NCCNC(=O)CCOCCOCCOCCOCCNC(=O)CCc3ccc4n3[B-](F)(F)[N+]3=C(c5ccc[nH]5)C=CC3=C4)cc21` [Amitriptyline-b-2-NB590]: the “NanoBRET Fold Response” value stood at 0.97 in test [1] (setting [4]); 1.16 in test [2] (tracer at 0.1μM); 0.99 in test [2] (tracer at 1μM); 0.86 in test [3] (tracer at 0.1μM, listed as amitriptyline-b-2-NB590); 1.17 in test [3] (setting [4]).
